Among the test systems are 786-0; BT-549; COLO 205; DU-145; HCT-116; HL-60; HOP-62; HT-29; IGROV-1; MCF7; MDA-MB-231; MOLT-4; NCI/ADR-RES; OVCAR-3; SF-268; SN12C; SR; T47D; UACC-257; NCI-H522.
Experiment in all cases: growth of human tumour cells (NCI), 48 h

These results are taken from ChEMBL document CHEMBL1201862, “PubChem BioAssay data set” (2004).

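How tested: cells in 96-well plates exposed to compound for 48 hours at five concentrations. GI50 is the concentration that inhibits growth by half.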 Calls of active or inactive are those of the source. Rule as the data show it: active = GI50 up to about 1.1 µM and inactive = higher. A value given as a limit tells only on which side of the number the result lay.

Turning to `Clc1ccc(C2Nc3ccccc3C3=NCCN32)cc1` (stereo not drawn), the GI50 in the assay with 786-0 was 18.5 µM (inactive); in the assay on BT-549 it was 24.3 µM (inactive); with COLO 205 it was 13 µM (inactive); in the assay on DU-145, 39.8 µM (inactive); with HCT-116, 12.4 µM (inactive); in the assay on HL-60, 22.1 µM (inactive). Moreover, the GI50 with HOP-62 is 23.4 µM (inactive); in the assay with HT-29, 11.4 µM (inactive); with IGROV-1 it was 14.2 µM (inactive); in the assay on MCF7, 22.3 µM (inactive); in the assay on MDA-MB-231, 23.5 µM (inactive); with MOLT-4, 36.4 µM (inactive). Further, the GI50 with NCI/ADR-RES was 19.5 µM (inactive); in the assay on OVCAR-3, 33.5 µM (inactive); in the assay on SF-268, 20.7 µM (inactive); in the assay on SN12C, 29.8 µM (inactive); in the assay with SR, 21 µM (inactive); with T47D, 15.6 µM (inactive). The GI50 in the assay with UACC-257 was 17.5 µM (inactive).
Take `Nc1nc(F)nc2c1ncn2C1OC(CO)C(O)C1O` (stereo not drawn): the GI50 in the assay on 786-0 is 38.1 µM (inactive); in the assay with BT-549, 57.5 µM (inactive); in the assay with COLO 205 it was 53.1 µM (inactive); with DU-145, 15.7 µM (inactive); with HCT-116 it was 39.5 µM (inactive); in the assay with HL-60 it was 42.5 µM (inactive). Also, the GI50 in the assay with HOP-62 was 5.12 µM (inactive); with HT-29, > 100 µM (inactive); in the assay with IGROV-1 it was > 100 µM (inactive); in the assay with MCF7 it was 57.7 µM (inactive); with MDA-MB-231, > 100 µM (inactive); with MOLT-4, 1.14 µM (inactive). For the same compound, the GI50 in the assay on NCI-H522 was 32.7 µM (inactive); in the assay with NCI/ADR-RES, 3.78 µM (inactive); in the assay on OVCAR-3, > 100 µM (inactive); with SF-268, > 61.7 µM (inactive); with SN12C it was 3.89 µM (inactive); with T47D, > 70 µM (inactive). Also, the GI50 with UACC-257 was > 90.8 µM (inactive).
On to `COc1cccc2cc(C(N)=O)c(=N)oc12`, for which the GI50 is 31.7 µM (inactive) in the assay with 786-0; > 100 µM (inactive) in the assay on BT-549; 49.4 µM (inactive) in the assay with COLO 205; 92.5 µM (inactive) with DU-145; 28.6 µM (inactive) in the assay with HCT-116; 58.7 µM (inactive) in the assay on HL-60. Moreover, the GI50 in the assay with HT-29 is 48.4 µM (inactive); with IGROV-1, 35.5 µM (inactive); in the assay with MDA-MB-231, 65.2 µM (inactive); in the assay on MOLT-4, > 100 µM (inactive); in the assay with NCI/ADR-RES it was 57.1 µM (inactive); in the assay with OVCAR-3, 36.9 µM (inactive). Besides, the GI50 in the assay on SF-268 was 51.1 µM (inactive); in the assay with SN12C it was 39.4 µM (inactive); in the assay on SR it was 58.2 µM (inactive); in the assay on T47D, 37.3 µM (inactive); in the assay on UACC-257 it was > 100 µM (inactive).
For `CC(=O)O[C@H]1C[C@](C)(O)[C@@]23CC([C@@H](OC(=O)C(C)(C)O)[C@@H](OC(C)=O)C2(COC(=O)c2ccccc2)[C@H]1OC(C)=O)C(C)(C)O3` (stereo partly drawn), the GI50 in the assay on 786-0, in the assay on BT-549, in the assay on COLO 205, with DU-145, in the assay on HCT-116 and in the assay with HOP-62 was > 100 µM (inactive) in each case. The GI50 was > 100 µM (inactive) in the assay on HT-29; > 100 µM (inactive) in the assay on IGROV-1; 50.9 µM (inactive) with MCF7; 16.8 µM (inactive) in the assay on MDA-MB-231; 31.4 µM (inactive) in the assay on MOLT-4; 67.1 µM (inactive) with NCI-H522. Besides, the GI50 in the assay with NCI/ADR-RES is > 100 µM (inactive); with OVCAR-3, 78.9 µM (inactive); in the assay on SF-268, > 100 µM (inactive); in the assay with SN12C, > 100 µM (inactive); in the assay on T47D it was > 100 µM (inactive); in the assay with UACC-257, > 100 µM (inactive).
In the case of `CCNC(=S)NNC(=O)c1csc(NC(=S)NC2CCCCC2)n1`, the GI50 with 786-0 was 6.52 µM (inactive); with BT-549, 15.2 µM (inactive); in the assay with COLO 205, 8.53 µM (inactive); in the assay with DU-145 it was 12.1 µM (inactive); in the assay with HCT-116, 5.26 µM (inactive); in the assay with HOP-62, 10.6 µM (inactive). Besides, the GI50 in the assay on HT-29 was > 100 µM (inactive); with MCF7 it was 4.69 µM (inactive); in the assay on MDA-MB-231 it was 6.53 µM (inactive); in the assay on MOLT-4, 3.11 µM (inactive); in the assay on NCI/ADR-RES, 14.4 µM (inactive); with OVCAR-3, 3.25 µM (inactive). Further, the GI50 is 10.8 µM (inactive) in the assay on SF-268; 3.19 µM (inactive) with SN12C; 3.5 µM (inactive) with SR; 11.7 µM (inactive) in the assay with T47D; 4.79 µM (inactive) with UACC-257.
With `Cc1ccc(Sc2ccccc2C23OC(C)(C4C(=O)N(c5ccccc5)C(=O)C42)N(C)C3=O)cc1` (stereo not drawn), the GI50 in the assay with 786-0 is 96.6 µM (inactive); with BT-549, > 100 µM (inactive); in the assay with COLO 205 it was > 100 µM (inactive); in the assay on DU-145, > 100 µM (inactive); with HCT-116 it was > 100 µM (inactive); in the assay on HL-60, > 100 µM (inactive). Besides, the GI50 in the assay with HT-29, in the assay on IGROV-1, in the assay on MDA-MB-231, in the assay on MOLT-4, in the assay with NCI-H522 and in the assay with NCI/ADR-RES was > 100 µM (inactive) each time. Besides, the GI50 is > 100 µM (inactive) in the assay on OVCAR-3; > 100 µM (inactive) in the assay with SF-268; 90.2 µM (inactive) with SN12C; > 100 µM (inactive) in the assay on SR; > 100 µM (inactive) with T47D; > 100 µM (inactive) in the assay on UACC-257.
As to `CCCCI(O)OS(=O)(=O)c1ccc(C)cc1`, the GI50 in the assay with 786-0, with BT-549, in the assay with COLO 205, with DU-145, in the assay on HCT-116 and with HOP-62 was > 100 µM (inactive) in each case. For the same compound, the GI50 in the assay with HT-29 is > 100 µM (inactive); with IGROV-1, 28.2 µM (inactive); with MCF7, > 100 µM (inactive); with MDA-MB-231, > 100 µM (inactive); in the assay on MOLT-4, > 100 µM (inactive); with NCI-H522, 22.5 µM (inactive). For the same compound, the GI50 in the assay with NCI/ADR-RES was 29.6 µM (inactive); with OVCAR-3 it was > 100 µM (inactive); in the assay on SF-268, > 100 µM (inactive); in the assay on SN12C it was > 100 µM (inactive); with SR, 55.3 µM (inactive); in the assay on T47D it was > 100 µM (inactive). In addition, the GI50 with UACC-257 was > 100 µM (inactive).
In the case of `CN(C)CS/C(N)=N\C(O)C(Cl)(Cl)Cl` (stereo not drawn), the GI50 in the assay on 786-0, in the assay with BT-549, in the assay on DU-145, with HCT-116, with HOP-62 and with HT-29 was > 100 µM (inactive) throughout. Moreover, the GI50 with IGROV-1, in the assay on MDA-MB-231, with MOLT-4, in the assay on NCI-H522, in the assay with NCI/ADR-RES and in the assay with OVCAR-3 was > 100 µM (inactive) throughout. The GI50 is > 100 µM (inactive) with SF-268; > 100 µM (inactive) in the assay on SN12C; 82.2 µM (inactive) with SR; > 100 µM (inactive) in the assay with T47D; > 100 µM (inactive) with UACC-257.
Consider `O=c1cc(/C=C/c2ccc(O)c(O)c2)cc(/C=C/c2ccc(O)c(O)c2)o1`, for which the GI50 in the assay with 786-0 was 14.3 µM (inactive); in the assay on BT-549, 13.9 µM (inactive); in the assay on COLO 205, 12.1 µM (inactive); in the assay on DU-145, 9.23 µM (inactive); in the assay with HCT-116, 8.17 µM (inactive); in the assay on HOP-62, 10.5 µM (inactive). For the same compound, the GI50 in the assay on HT-29 is 11.4 µM (inactive); with IGROV-1 it was 12.9 µM (inactive); with MCF7, 4.05 µM (inactive); with MDA-MB-231, 11.5 µM (inactive); in the assay with MOLT-4, 1.92 µM (inactive); in the assay on NCI-H522, 1.68 µM (inactive). Further, the GI50 in the assay with NCI/ADR-RES is 32.9 µM (inactive); with OVCAR-3, 7.71 µM (inactive); in the assay on SF-268 it was 5.86 µM (inactive); with SN12C it was 9.71 µM (inactive); in the assay on SR, 1.24 µM (inactive); in the assay on T47D it was 8.79 µM (inactive). Further, in the assay on UACC-257, the GI50 was 12.5 µM (inactive).
Turning to `COc1cccc2c1C(=O)c1c(O)c3c(c(O)c1C2=O)C[C@@](O)(C(=O)CO)C[C@@H]3OC1CC(N)C(OC)C(C)O1` (stereo partly drawn), the GI50 in the assay with 786-0 is 0.0327 µM (active); in the assay on BT-549, 0.27 µM (active); with COLO 205, 0.209 µM (active); in the assay with DU-145 it was 0.264 µM (active); in the assay on HCT-116, 0.0282 µM (active); in the assay on HL-60, < 0.0163 µM (active). The GI50 was 0.0234 µM (active) in the assay with HOP-62; 0.0559 µM (active) in the assay on HT-29; 0.108 µM (active) with IGROV-1; < 0.01 µM (active) with MCF7; 0.474 µM (active) in the assay on MDA-MB-231; < 0.01 µM (active) with MOLT-4. Besides, the GI50 with NCI-H522 is 0.076 µM (active); in the assay with OVCAR-3, 0.338 µM (active); in the assay with SF-268, 0.0726 µM (active); with SN12C, 0.0378 µM (active); in the assay on SR it was < 0.0157 µM (active); in the assay with T47D it was 0.23 µM (active). In the assay on UACC-257, the GI50 is 0.282 µM (active).
As for `CCOC(=O)C1(C/C=C\CBr)CCCC1=O` (stereo not drawn), the GI50 in the assay with 786-0 is 32.3 µM (inactive); in the assay on BT-549 it was 30.3 µM (inactive); with COLO 205, 37.3 µM (inactive); with DU-145, 27.5 µM (inactive); in the assay with HCT-116, 19.5 µM (inactive); in the assay on HOP-62, 29.1 µM (inactive). Further, the GI50 was 29.3 µM (inactive) in the assay on HT-29; 24.9 µM (inactive) with IGROV-1; 11.5 µM (inactive) in the assay with MCF7; 25.6 µM (inactive) in the assay on MDA-MB-231; 21.4 µM (inactive) in the assay with NCI-H522; 25.5 µM (inactive) with NCI/ADR-RES. In addition, the GI50 was 32.5 µM (inactive) in the assay on SF-268, 18.4 µM (inactive) with SN12C, 30.5 µM (inactive) with T47D and 39 µM (inactive) in the assay on UACC-257.
